The test addresses T1, DMGDH (His6-DMGDH, mature human dimethylglycine dehydrogenase) (Homo sapiens, UniProt Q9UI17).
T1 sequence (Q9UI17 51-866): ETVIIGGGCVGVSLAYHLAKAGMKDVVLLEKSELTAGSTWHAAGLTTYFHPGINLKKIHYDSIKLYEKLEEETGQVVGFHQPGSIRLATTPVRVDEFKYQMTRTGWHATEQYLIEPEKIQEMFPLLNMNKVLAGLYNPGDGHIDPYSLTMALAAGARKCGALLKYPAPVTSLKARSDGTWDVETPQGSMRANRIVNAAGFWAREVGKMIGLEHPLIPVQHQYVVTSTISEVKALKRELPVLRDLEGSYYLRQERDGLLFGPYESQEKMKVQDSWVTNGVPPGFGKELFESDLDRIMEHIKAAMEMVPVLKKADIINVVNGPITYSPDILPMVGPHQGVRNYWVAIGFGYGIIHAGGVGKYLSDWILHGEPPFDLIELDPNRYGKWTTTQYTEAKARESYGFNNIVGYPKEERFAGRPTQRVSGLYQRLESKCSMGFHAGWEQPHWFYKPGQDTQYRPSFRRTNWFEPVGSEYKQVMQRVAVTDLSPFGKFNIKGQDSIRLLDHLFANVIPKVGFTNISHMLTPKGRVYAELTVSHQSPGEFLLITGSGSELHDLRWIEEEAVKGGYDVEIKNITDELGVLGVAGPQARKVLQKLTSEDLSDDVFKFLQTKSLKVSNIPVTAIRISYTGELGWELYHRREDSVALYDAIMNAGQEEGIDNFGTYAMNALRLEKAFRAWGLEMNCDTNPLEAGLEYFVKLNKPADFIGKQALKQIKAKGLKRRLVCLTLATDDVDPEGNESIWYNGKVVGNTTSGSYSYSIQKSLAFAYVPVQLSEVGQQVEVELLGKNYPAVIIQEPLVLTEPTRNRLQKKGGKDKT
Kind of test: ferricenium reduction at […] nm. In kind it is biochemical. As to conditions: dimethylglycine as substrate, Hepes pH 7.5, 25°C.

With `Nc1nc2c(c(=O)[nH]1)N[C@@H](CNc1ccc(C(=O)N[C@@H](CCC(=O)O)C(=O)O)cc1)CN2` [tetrahydrofolate], the “% decrease in Vmax at 4 μmol/L” value was ~ 25%.

The values are drawn from article PMC2828353 (Journal of inherited metabolic disease, 2008).
